According to ChEMBL document CHEMBL1667853, “Design and synthesis of potent Gram-negative specific LpxC inhibitors” (Bioorg Med Chem Lett, 2011):
In brackets after ≈: the same amount, converted by molar mass.

How the values were obtained:
Escherichia coli [1] = experiment: Antimicrobial activity against Escherichia coli HS294 by broth dilution assay; format: functional
Escherichia coli [2] = experiment: Antimicrobial activity against Escherichia coli ATCC 25922 by broth dilution assay; format: functional
[3] = biological target: T1, UDP-3-O-acyl-N-acetylglucosamine deacetylase (Escherichia coli K-12, UniProt P0A725); experiment: Inhibition of Escherichia coli LpxC
T1 sequence (P0A725 whole entry): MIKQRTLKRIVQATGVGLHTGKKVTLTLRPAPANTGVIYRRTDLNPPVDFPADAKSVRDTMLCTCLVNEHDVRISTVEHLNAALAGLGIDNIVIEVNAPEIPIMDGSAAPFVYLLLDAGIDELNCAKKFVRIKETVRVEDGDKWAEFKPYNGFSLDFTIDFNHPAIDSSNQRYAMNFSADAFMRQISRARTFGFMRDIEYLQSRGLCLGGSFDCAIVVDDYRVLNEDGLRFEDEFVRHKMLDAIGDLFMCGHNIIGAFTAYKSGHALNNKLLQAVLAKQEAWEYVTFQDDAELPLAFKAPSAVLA

Escherichia coli [4] = experiment: Antimicrobial activity against multidrug-resistant Escherichia coli by broth dilution assay; format: functional
Pseudomonas aeruginosa [5] = experiment: Antimicrobial activity against multidrug-resistant Pseudomonas aeruginosa by broth dilution assay; format: functional
Pseudomonas aeruginosa [6] = experiment: Antimicrobial activity against wild type Pseudomonas aeruginosa by broth dilution assay; format: functional
Escherichia coli [7] = experiment: Antimicrobial activity against wild type Escherichia coli by broth dilution assay; format: functional
Klebsiella pneumoniae [8] = experiment: Antimicrobial activity against wild type Klebsiella pneumoniae by broth dilution assay; format: functional
Acinetobacter baumannii = experiment: Antimicrobial activity against wild type Acinetobacter baumannii by broth dilution assay; format: functional
[9] = test system: Acinetobacter calcoaceticus; experiment: Antimicrobial activity against wild type Acinetobacter calcoaceticus by broth dilution assay; format: functional
[10] = test system: Stenotrophomonas maltophilia; experiment: Antimicrobial activity against wild type Stenotrophomonas maltophilia by broth dilution assay; format: functional
Enterobacter cloacae = experiment: Antimicrobial activity against ESBL producing Enterobacter cloacae by broth dilution assay; format: functional
Escherichia coli [11] = experiment: Antimicrobial activity against ESBL producing Escherichia coli by broth dilution assay; format: functional
Serratia marcescens = experiment: Antimicrobial activity against wild type Serratia marcescens by broth dilution assay; format: functional
Klebsiella pneumoniae [12] = experiment: Antimicrobial activity against ESBL producing Klebsiella pneumoniae by broth dilution assay; format: functional
Klebsiella aerogenes = experiment: Antimicrobial activity against wild type Enterobacter aerogenes by broth dilution assay; format: functional
Proteus vulgaris = experiment: Antimicrobial activity against wild type Proteus vulgaris by broth dilution assay; format: functional

Structure (SMILES) | MIC (Escherichia coli [1]) [µg/mL] | MIC (Escherichia coli [2]) [µg/mL] | IC50 [3] [nM] | further results
C[C@@H](O)[C@@H](NC(=O)N1CCN(c2ccc(-c3ccc(N4CCOCC4)cc3)cc2)CC1)C(=O)NO | 3.13 (≈ 6.47 µM) | 6.25 (≈ 12.9 µM) | 16.3 | –
C[C@@H](O)[C@H](C(=O)NO)N1Cc2cc(-c3ccc(-c4ccccc4)cc3)ccc2C1=O | – | – | 50 | –
C[C@@H](O)[C@@H](NC(=O)N1CCC(C#Cc2ccccc2)CC1)C(=O)NO | 3.13 (≈ 9.06 µM) | 25 (≈ 72.4 µM) | 207 | –
C[C@@H](O)[C@H](C(=O)NO)N1Cc2cc(-c3ccccc3)ccc2C1=O | – | – | 41000 | –
C[C@@H](O)[C@@H](NC(=O)N1CCN(c2ccc(C#Cc3ccncc3)cc2)CC1)C(=O)NO | 0.8 (≈ 1.89 µM) | 3.13 (≈ 7.39 µM) | 4 | –
C[C@@H](O)[C@@H](NC(=O)N1CCN(c2ccc(C#Cc3ccc(Cl)cc3)cc2)CC1)C(=O)NO | 1.56 (≈ 3.41 µM) | 6.25 (≈ 13.7 µM) | 5 | –
C[C@@H](O)[C@@H](NC(=O)N1CCN(c2ccc(C#Cc3cccs3)cc2)CC1)C(=O)NO | 1.56 (≈ 3.64 µM) | 25 (≈ 58.3 µM) | 21 | –
C[C@@H](O)[C@@H](NC(=O)N1CCC(c2ccc(C#Cc3ccccc3)cc2)CC1)C(=O)NO | 0.8 (≈ 1.9 µM) | 12.5 (≈ 29.7 µM) | – | –
CC[C@H]1OC(=O)[C@H](C)[C@@H](O[C@H]2C[C@@](C)(OC)[C@@H](O)[C@H](C)O2)[C@H](C)[C@@H](O[C@@H]2O[C@H](C)C[C@H](N(C)C)[C@H]2O)[C@](C)(O)C[C@@H](C)CN(C)[C@H](C)[C@@H](O)[C@]1(C)O [AZITHROMYCIN] | – | – | – | MIC (Escherichia coli [4]): 32 µg/mL (≈ 42.7 µM); MIC (Pseudomonas aeruginosa [5]): 32 µg/mL (≈ 42.7 µM); MIC (Pseudomonas aeruginosa [6]): 4 µg/mL (≈ 5.34 µM)
C[C@@H](O)[C@@H](NC(=O)N1CCN(c2ccc(C#Cc3ccccn3)cc2)CC1)C(=O)NO | 6.25 (≈ 14.8 µM) | > 100 | 10 | –
CC(C)(O)[C@@H](NC(=O)N1CCN(c2ccc(-c3ccccc3)cc2)CC1)C(=O)NO | 0.8 (≈ 1.94 µM) | 3.13 (≈ 7.59 µM) | 7 | –
C[C@@H](O)[C@H](C(=O)NO)N1Cc2cc(C#Cc3cccc(-c4ccccc4)c3)ccc2C1=O | – | – | 971 | –
CC(C)(O)[C@@H](NC(=O)N1CCC(c2ccc(-c3ccccc3)cc2)CC1)C(=O)NO | 0.2 (≈ 0.486 µM) | 0.8 (≈ 1.94 µM) | 2.5 | –
CN(C)[C@@H]1C(O)=C(C(N)=O)C(=O)[C@@]2(O)C(O)=C3C(=O)c4c(O)cccc4[C@@](C)(O)[C@H]3C[C@@H]12 [TETRACYCLINE] | – | – | – | MIC (Escherichia coli [4]): > 2 µg/mL; MIC (Pseudomonas aeruginosa [5]): 16 µg/mL (≈ 36 µM); MIC (Escherichia coli [7]): 1 µg/mL (≈ 2.25 µM); MIC (Pseudomonas aeruginosa [6]): 1 µg/mL (≈ 2.25 µM)
C[C@@H](O)[C@H](C(=O)NO)N1Cc2cc(Br)ccc2C1=O | – | – | > 61000 | –
CCCc1cc(C2=N[C@@H](C(=O)NO)CO2)cc(OC)c1OC | – | – | – | Ki [3]: 50 nM
NC[C@@H](NC(=O)N1CCC(c2ccc(C#Cc3ccccc3)cc2)CC1)C(=O)NO | 6.25 (≈ 15.4 µM) | 12.5 (≈ 30.8 µM) | 163 | –
C[C@@H](O)[C@H](C(=O)NO)N1Cc2ccc(C#Cc3ccccc3)cc2C1=O | – | – | 34000 | –
C[C@@H](O)[C@@H](NC(=O)N1CCCC(c2ccc(C#Cc3ccccc3)cc2)C1)C(=O)NO (stereo partly drawn) | 25 (≈ 59.3 µM) | > 100 | 387 | –
C[C@@H](O)[C@@H](NC(=O)NCc1ccc(C#Cc2ccccc2)cc1)C(=O)NO | 12.5 (≈ 34 µM) | > 100 | 201 | –
C[C@@H](O)[C@@H](NC(=O)N1CCC(c2cccc(C#Cc3ccccc3)c2)C1)C(=O)NO (stereo partly drawn) | 1.56 (≈ 3.83 µM) | 100 (≈ 245 µM) | 146 | –
C[C@@H](O)[C@@H](NC(=O)N1CCC(c2ccc(-c3ccccc3)cc2)CC1)C(=O)NO | 0.8 (≈ 2.01 µM) | 6.25 (≈ 15.7 µM) | 13.8 | MIC (Escherichia coli [4]): 3.13 µg/mL (≈ 7.87 µM); MIC (Klebsiella pneumoniae [8]): > 100 µg/mL; MIC (Acinetobacter baumannii): > 100 µg/mL; MIC [9]: > 100 µg/mL; MIC [10]: > 100 µg/mL; MIC (Enterobacter cloacae): 3.13 µg/mL (≈ 7.87 µM); MIC (Escherichia coli [11]): 3.13 µg/mL (≈ 7.87 µM); MIC (Pseudomonas aeruginosa [5]): > 12.5 µg/mL; MIC (Serratia marcescens): 6.25 µg/mL (≈ 15.7 µM); MIC (Klebsiella pneumoniae [12]): 12.5 µg/mL (≈ 31.4 µM); MIC (Klebsiella aerogenes): > 100 µg/mL; MIC (Escherichia coli [7]): 1.56 µg/mL (≈ 3.92 µM); MIC (Pseudomonas aeruginosa [6]): 3.13 µg/mL (≈ 7.87 µM); MIC (Proteus vulgaris): 3.13 µg/mL (≈ 7.87 µM)
O=C(N[C@H](CO)[C@H](O)c1ccc([N+](=O)[O-])cc1)C(Cl)Cl [CHLORAMPHENICOL] | – | – | – | MIC (Escherichia coli [4]): > 32 µg/mL; MIC (Pseudomonas aeruginosa [5]): > 256 µg/mL; MIC (Escherichia coli [7]): 2 µg/mL (≈ 6.19 µM); MIC (Pseudomonas aeruginosa [6]): 2 µg/mL (≈ 6.19 µM)
C[C@@H](O)[C@@H](NC(=O)N1CCN(c2ccc(C#Cc3ccc(CN4CCOCC4)cc3)cc2)CC1)C(=O)NO | 1.56 (≈ 2.99 µM) | 6.25 (≈ 12 µM) | 14 | –
C[C@@H](O)[C@@H](NC(=O)N1CCN(c2ccc(C#Cc3cccnc3)cc2)CC1)C(=O)NO | 12.5 (≈ 29.5 µM) | 100 (≈ 236 µM) | 63 | –
